Assay results published in patent US7390813B1, “Pyridylpiperazines and aminonicotinamides and their use as therapeutic agents” (Xenon Pharmaceuticals Inc., priority 2001, dated 2008).
Where two headings read alike, the source gives them in different places.

Tests used:
[1] = target: T1, stearoyl-CoA desaturase (SCD) (Mus musculus, UniProt P13516); assay: SCD mouse liver microsome assay (tritiated stearoyl-CoA desaturation); type: biochemical; conditions: for % Remaining SCD activity compared to DMSO control, average: mouse liver microsomes 100 μg, 15 min RT preincubation, 15 min RT desaturation
T1 construct: % Remaining SCD activity compared to DMSO control in mouse liver microsome assay; from tissue; host or cells: mouse liver microsomes
T1 sequence (P13516 1-355): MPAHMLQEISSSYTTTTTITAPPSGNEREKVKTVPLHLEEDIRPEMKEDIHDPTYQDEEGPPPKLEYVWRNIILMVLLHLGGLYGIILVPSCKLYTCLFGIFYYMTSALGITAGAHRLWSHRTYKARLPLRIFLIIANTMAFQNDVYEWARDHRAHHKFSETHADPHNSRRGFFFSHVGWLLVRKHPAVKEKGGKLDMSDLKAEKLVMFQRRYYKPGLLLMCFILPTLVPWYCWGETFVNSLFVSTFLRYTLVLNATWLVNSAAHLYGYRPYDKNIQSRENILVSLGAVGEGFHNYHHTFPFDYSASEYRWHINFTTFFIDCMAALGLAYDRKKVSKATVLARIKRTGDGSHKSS
Method: The identification of compounds of the invention was readily accomplished using the SCD enzyme and microsomal assay procedure described in Brownlie et al, supra.
Briefly, mouse or human liver microsomes (induced for SCD1 expression and containing cytochrome b5 and cytochrome b5 reductase) and NADH are suspended in buffer with a test compound, and reaction is initiated by addition of 0.025 mM tritiated stearoyl-CoA. This ligand is tritiated at the C9 and C10 position only. The reaction is allowed to proceed for between 5 and 20 minutes at room temperature, whereupon it is halted by addition of acid. Activated charcoal is then added, mixed, and centrifuged to separate labeled substrate from labeled water. An aliquot of supernatant is than tested for radioactivity using liquid scintillation counting. This is taken as a measure of delta-9 desaturase activity.
The compounds and compositions of the invention were tested in mouse liver microsomes, 100 μg for 15 minutes at room temperature pre-incubation with the compound and 15 minutes at room temperature desaturation period. […] Identification numbers are the same as those indicated in FIGS. 1 and 2 showing the structures and characteristics of the compounds.
% Remaining SCD activity compared to DMSO control in mouse liver microsome assay at concentration of test compound indicated. Compounds tested in mouse liver microsomes, 100 μg, 15 min RT preincubation with compound, 15 min RT desaturation period, Large volume bench-top tube method.

stearoyl-CoA desaturase = assay: Fatty acid composition in rats after repeated dosing; type: in vivo; conditions: 9 doses (2 per day), 30 mg/kg body weight, HCl salt
Source text: A highly preferred compound of the invention has the structure of Formula I, wherein R1 is H and R2 is isopentyl, X=C, n=2, m=1 and R3=2-trifluoromethylphenyl.

[2] = Table 5, % remaining SCD activity at 10 μM, mouse microsome assay
[3] = Table 5, % remaining SCD activity at 0.1 μM, mouse microsome assay
[4] = Table 5, % remaining SCD activity at 1 μM, mouse microsome assay

Cc1ccsc1C(=O)N1CCN(c2ccc(C(=O)NCCc3cccc(Cl)c3)cn2)CC1 [Compound X18]
% Remaining SCD activity compared to DMSO control, average ([1]; 0.1 uM test compound): 86.33% | % Remaining SCD activity compared to DMSO control, average ([1]; 1 uM test compound): 32.64% | % Remaining SCD activity compared to DMSO control, average ([1]; 10 uM test compound): 3.41% | % Activity 10 μM [1, 2]: 3.41%

O=C(NCCc1cccc(Cl)c1)c1ccc(N2CCN(C(=O)c3ccccc3C(F)(F)F)CC2)nc1 [Compound X01]
% Remaining SCD activity compared to DMSO control, average ([1]; 0.1 uM test compound): 57.77% | % Remaining SCD activity compared to DMSO control, average ([1]; 1 uM test compound): 9.05% | % Remaining SCD activity compared to DMSO control, average ([1]; 10 uM test compound): 1.42% | % Activity 0.1 μM [1, 3]: 58% | % Activity 1 μM [1, 4]: 9.1% | % Activity 10 μM [1, 2]: 1.4%

CCCCCNC(=O)c1ccc(N2CCN(C(=O)c3ccccc3Br)CC2)nc1 [Compound X13]
% Remaining SCD activity compared to DMSO control, average ([1]; 0.1 uM test compound): 44.42% | % Remaining SCD activity compared to DMSO control, average ([1]; 1 uM test compound): 7.77% | % Remaining SCD activity compared to DMSO control, average ([1]; 10 uM test compound): 1.75% | % Activity 0.1 μM [1, 3]: 44% | % Activity 1 μM [1, 4]: 7.8% | % Activity 10 μM [1, 2]: 1.8%

Cc1ccccc1CC(=O)N1CCN(c2ccc(C(=O)NCCC(C)C)cn2)CC1 [Compound X21]
% Remaining SCD activity compared to DMSO control, average ([1]; 0.1 uM test compound): 74.82% | % Remaining SCD activity compared to DMSO control, average ([1]; 1 uM test compound): 33.28% | % Remaining SCD activity compared to DMSO control, average ([1]; 10 uM test compound): 3.94% | % Activity 10 μM [1, 2]: 3.94%

CC(C)CCNC(=O)c1ccc(N2CCN(C(=O)c3ccc(Cl)cc3Cl)CC2)nc1 [Compound X14]
% Remaining SCD activity compared to DMSO control, average ([1]; 0.1 uM test compound): 38.24% | % Remaining SCD activity compared to DMSO control, average ([1]; 1 uM test compound): 7.44% | % Remaining SCD activity compared to DMSO control, average ([1]; 10 uM test compound): 1.39% | % Activity 0.1 μM [1, 3]: 38% | % Activity 1 μM [1, 4]: 7.4% | % Activity 10 μM [1, 2]: 1.4%

CCCCCNC(=O)c1ccc(N2CCN(C(=O)c3ccccc3C(F)(F)F)CC2)nc1 [Compound X11]
% Remaining SCD activity compared to DMSO control, average ([1]; 0.1 uM test compound): 25.41% | % Remaining SCD activity compared to DMSO control, average ([1]; 1 uM test compound): 3.67% | % Remaining SCD activity compared to DMSO control, average ([1]; 10 uM test compound): 1.72% | % Activity 0.1 μM [1, 3]: 25% | % Activity 1 μM [1, 4]: 3.7% | % Activity 10 μM [1, 2]: 1.7% | IC50 ([1]; Table 5, SCD inhibition, read-out: IC50): 37 nM

O=C(NCCCc1ccccc1)c1ccc(N2CCN(C(=O)c3cc(Cl)ccc3Cl)CC2)nc1 [Compound X10]
% Remaining SCD activity compared to DMSO control, average ([1]; 0.1 uM test compound): 29.72% | % Remaining SCD activity compared to DMSO control, average ([1]; 1 uM test compound): 3.37% | % Remaining SCD activity compared to DMSO control, average ([1]; 10 uM test compound): 1.07% | % Activity 0.1 μM [1, 3]: 30% | % Activity 1 μM [1, 4]: 3.4% | % Activity 10 μM [1, 2]: 1.1%

O=C(NCCc1ccccc1)c1ccc(N2CCN(C(=O)c3cc(Cl)ccc3Cl)CC2)nc1 [Compound X12]
% Remaining SCD activity compared to DMSO control, average ([1]; 0.1 uM test compound): 29.87% | % Remaining SCD activity compared to DMSO control, average ([1]; 1 uM test compound): 3.91% | % Remaining SCD activity compared to DMSO control, average ([1]; 10 uM test compound): 1.15% | % Activity 0.1 μM [1, 3]: 30% | % Activity 1 μM [1, 4]: 3.9% | % Activity 10 μM [1, 2]: 1.2%

CC(C)CCNC(=O)c1ccc(N2CCN(C(=O)c3cccc4ccccc34)CC2)nc1 [Compound X16]
% Remaining SCD activity compared to DMSO control, average ([1]; 0.1 uM test compound): 31.35% | % Remaining SCD activity compared to DMSO control, average ([1]; 1 uM test compound): 7.01% | % Remaining SCD activity compared to DMSO control, average ([1]; 10 uM test compound): 2.06% | % Activity 0.1 μM [1, 3]: 31% | % Activity 1 μM [1, 4]: 7% | % Activity 10 μM [1, 2]: 2.1%

CC(C)CCNC(=O)c1ccc(N2CCN(C(=O)c3ccccc3C(F)(F)F)CC2)nc1 [Compound X05]
% Remaining SCD activity compared to DMSO control, average ([1]; 0.1 uM test compound): 17.09% | % Remaining SCD activity compared to DMSO control, average ([1]; 1 uM test compound): 3.05% | % Remaining SCD activity compared to DMSO control, average ([1]; 10 uM test compound): 0.81% | activity at 0.1 µM [1, 3]: 17% | activity at 1 µM [1, 4]: 3.1% | activity at 10 µM [1, 2]: 0.8% | IC50 ([1]; stated in summary text, read-out: IC50 value): 32 nM

CCCCCCNC(=O)c1ccc(N2CCN(C(=O)c3ccccc3C(F)(F)F)CC2)nc1 [Compound X15]
% Remaining SCD activity compared to DMSO control, average ([1]; 0.1 uM test compound): 44.95% | % Remaining SCD activity compared to DMSO control, average ([1]; 1 uM test compound): 6.46% | % Remaining SCD activity compared to DMSO control, average ([1]; 10 uM test compound): 1.22% | % Activity 0.1 μM [1, 3]: 45% | % Activity 1 μM [1, 4]: 6.5% | % Activity 10 μM [1, 2]: 1.2%

O=C(NCCCc1ccccc1)c1ccc(N2CCN(C(=O)c3ccccc3C(F)(F)F)CC2)nc1 [Compound X03]
% Remaining SCD activity compared to DMSO control, average ([1]; 0.1 uM test compound): 26.04% | % Remaining SCD activity compared to DMSO control, average ([1]; 1 uM test compound): 2.17% | % of the activity inhibited ([1]; 10 μM concentration of the compound): > 99% | % Remaining SCD activity compared to DMSO control, average ([1]; 10 uM test compound): 0.72% | % Activity 0.1 μM [1, 3]: 26% | % Activity 1 μM [1, 4]: 2.2% | % Activity 10 μM [1, 2]: 0.7%

CC(C)CCNC(=O)c1ccc(N2CCN(C(=O)c3ccccc3C(F)(F)F)CC2)nc1
changes in fatty acid composition (stearoyl-CoA desaturase): changes in fatty acid composition consistent with inhibition of SCD activity

CCCCNC(=O)c1ccc(N2CCN(C(=O)c3ccccc3C(F)(F)F)CC2)nc1 [Compound X09]
% Remaining SCD activity compared to DMSO control, average ([1]; 0.1 uM test compound): 63.58% | % Remaining SCD activity compared to DMSO control, average ([1]; 1 uM test compound): 14.80% | % Remaining SCD activity compared to DMSO control, average ([1]; 10 uM test compound): 2.69% | % Activity 0.1 μM [1, 3]: 64% | % Activity 1 μM [1, 4]: 15% | % Activity 10 μM [1, 2]: 2.7%

CC(C)CCNC(=O)c1ccc(N2CCN(C(=O)c3ccccc3Br)CC2)nc1 [Compound X02]
% Remaining SCD activity compared to DMSO control, average ([1]; 0.1 uM test compound): 25.68% | % Remaining SCD activity compared to DMSO control, average ([1]; 1 uM test compound): 5.49% | % Remaining SCD activity compared to DMSO control, average ([1]; 10 uM test compound): 1.27% | % Activity 0.1 μM [1, 3]: 26% | % Activity 1 μM [1, 4]: 5.5% | % Activity 10 μM [1, 2]: 1.3%

CCCCCNC(=O)c1ccc(N2CCN(C(=O)c3cc(Cl)ccc3Cl)CC2)nc1 [Compound X06]
% Remaining SCD activity compared to DMSO control, average ([1]; 0.1 uM test compound): 38.00% | % Remaining SCD activity compared to DMSO control, average ([1]; 1 uM test compound): 5.38% | % Remaining SCD activity compared to DMSO control, average ([1]; 10 uM test compound): 1.97% | % Activity 0.1 μM [1, 3]: 38% | % Activity 1 μM [1, 4]: 5.4% | % Activity 10 μM [1, 2]: 2%

CCCCNC(=O)c1ccc(N2CCN(C(=O)c3ccccc3Br)CC2)nc1 [Compound X19]
% Remaining SCD activity compared to DMSO control, average ([1]; 0.1 uM test compound): 75.14% | % Remaining SCD activity compared to DMSO control, average ([1]; 1 uM test compound): 18.59% | % Remaining SCD activity compared to DMSO control, average ([1]; 10 uM test compound): 3.57% | % Activity 10 μM [1, 2]: 3.57%

O=C(NCCc1ccccc1)c1ccc(N2CCN(C(=O)c3ccccc3Br)CC2)nc1 [Compound X04]
% Remaining SCD activity compared to DMSO control, average ([1]; 0.1 uM test compound): 36.54% | % Remaining SCD activity compared to DMSO control, average ([1]; 1 uM test compound): 5.48% | % Remaining SCD activity compared to DMSO control, average ([1]; 10 uM test compound): 1.29% | % Activity 0.1 μM [1, 3]: 37% | % Activity 1 μM [1, 4]: 5.5% | % Activity 10 μM [1, 2]: 1.3%

COc1ccc(Br)c(C(=O)N2CCN(c3ccc(C(=O)NCCCc4ccccc4)cn3)CC2)c1 [Compound X17]
% Remaining SCD activity compared to DMSO control, average ([1]; 0.1 uM test compound): 61.74% | % Remaining SCD activity compared to DMSO control, average ([1]; 1 uM test compound): 10.59% | % Remaining SCD activity compared to DMSO control, average ([1]; 10 uM test compound): 1.01% | % Activity 10 μM [1, 2]: 1.01%
